Experimental data: patent US20250171461A1, “STIMULATOR OF INTERFERON GENES (STING) MODULATORS, AND COMPOSITIONS AND METHODS THEREOF” (Geode Therapeutics Inc., priority 2022, published 2025)

Legend:
hERG channel = target: T1, hERG channel (Homo sapiens, UniProt Q12809); assay: hERG safety evaluation, manual whole cell patch clamp in hERG-expressing HEK 293 cells; type: cell-based; details: hERG stably expressed HEK 293 cells, tail current, whole cell recording
T1 construct: host or cells: HEK 293
T1 sequence (Q12809 whole entry): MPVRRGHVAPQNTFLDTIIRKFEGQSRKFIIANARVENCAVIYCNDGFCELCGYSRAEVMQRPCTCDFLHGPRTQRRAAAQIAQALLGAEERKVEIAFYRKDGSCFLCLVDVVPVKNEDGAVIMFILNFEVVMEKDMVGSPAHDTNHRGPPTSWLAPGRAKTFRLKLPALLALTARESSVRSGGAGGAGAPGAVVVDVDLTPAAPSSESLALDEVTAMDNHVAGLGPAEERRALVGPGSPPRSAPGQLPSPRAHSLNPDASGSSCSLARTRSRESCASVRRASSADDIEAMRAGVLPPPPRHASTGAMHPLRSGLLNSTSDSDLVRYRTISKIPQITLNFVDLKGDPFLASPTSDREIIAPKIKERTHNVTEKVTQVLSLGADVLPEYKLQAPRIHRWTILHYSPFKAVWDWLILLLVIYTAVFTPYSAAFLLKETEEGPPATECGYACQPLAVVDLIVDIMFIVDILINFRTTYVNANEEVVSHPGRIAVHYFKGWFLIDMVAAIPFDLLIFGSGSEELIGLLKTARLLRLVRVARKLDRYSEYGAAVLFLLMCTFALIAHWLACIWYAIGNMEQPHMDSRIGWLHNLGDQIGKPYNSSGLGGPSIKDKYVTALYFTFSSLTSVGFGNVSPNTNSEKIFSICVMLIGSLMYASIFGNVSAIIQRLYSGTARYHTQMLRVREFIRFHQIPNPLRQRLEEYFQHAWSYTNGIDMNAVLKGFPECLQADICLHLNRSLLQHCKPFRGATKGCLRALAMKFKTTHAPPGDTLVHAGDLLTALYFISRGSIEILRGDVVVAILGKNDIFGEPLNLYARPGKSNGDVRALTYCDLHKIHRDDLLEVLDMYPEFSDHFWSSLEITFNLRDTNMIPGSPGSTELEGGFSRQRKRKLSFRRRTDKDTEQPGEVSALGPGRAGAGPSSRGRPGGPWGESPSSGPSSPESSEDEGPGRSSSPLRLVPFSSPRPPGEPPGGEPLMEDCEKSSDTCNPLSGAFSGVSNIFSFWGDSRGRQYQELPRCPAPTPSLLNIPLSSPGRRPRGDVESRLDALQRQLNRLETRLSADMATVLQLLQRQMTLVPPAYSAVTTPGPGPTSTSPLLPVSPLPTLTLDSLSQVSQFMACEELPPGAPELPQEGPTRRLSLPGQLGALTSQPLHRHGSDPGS
Protocol: (1) hERG stably expressed HEK 293 cell line (#60187) was purchased from BPS Bioscience and P3-P20 were used for the study. Cells were cultured in medium containing: 90% MEM, 10% FBS, 0.1 mM NEAA, 100 U/mL Penicillin-Streptomycin, 1 mM Na pyruvate and 500 μg/mL Geneticin. Cells are split about three times a week, and maintained between ˜40% to ˜80% confluence. 24 to 48 hours prior to recordings, the cells were plated on 0.05 mg/mL PDL pre-coated glass cover slips placed in 48-well plate at 1×10^4 cells. (2) The number of cells being plated on the cover slip should reach a confluence rate at which majority of the cells are single. (1) Test compounds were initially prepared in DMSO with final concentration of 10 mM as stock solution. (2) Compound was first made into 10, 3, 1, 0.3 and 0.1 mM DMSO stock, then serial diluted into the desired test concentrations in the extracellular solution (ECs). 30 uM test solution was diluted from 10 mM DMSO stock. The final DMSO concentration was in range of 0.1-0.3%. HEKA EPC 10 USB patch clamp amplifier (from HEKA Elektronik, Germany) was used in the whole cell recording. A cover slip with plenty of single HEK293 hERG cells on the surface was removed and placed into a continuously perfused (approximately 1 ml/minute) recording chamber mounted on an inverted microscope. HERG channel currents were recorded from single cells using standard whole cell recording techniques. The cells were voltage clamped at a holding potential of −80 mV. Then hERG current was activated by depolarizing at +30 mV for 5000 ms, after which the current was taken back to −50 mV for 5000 ms to remove the inactivation and observe the deactivating tail current. The K+ tail current through HERG channels observed during this step was allowed to stabilize under continuous bath perfusion. Cells were then superfused with drug until steady state block was achieved. Steady state was considered reached when three consecutive super-imposable current records were collected. At this point, cells were once again superfused with extracellular solution until the current amplitude returned to values close to those measured before application of drug. (1) Percent current inhibition was calculated using the following equation. (Note: PatchMaster was used to extract the peak current from the original data.) (2) The dose response curve of test compounds was plotted with % inhibition against the concentration of test compounds using Graphpad Prism 9.0, and fit the data to a log(inhibitor) vs. response—Variable slope curve.

[1] = target: T2, human HAQ STING isoform (hSTING HAQ) (Homo sapiens, UniProt Q86WV6, G230A/H232R/R293Q/R71H); assay: IFN-β mRNA level in THP1 cells (qPCR, STING agonist cellular activity); type: cell-based; details: compound at 3.6 μM, 2 hrs, IFNβ expression normalized against GAPDH by the 2^-ΔΔCT method, DMSO = 1.0
T2 construct: THP1 cells express the naturally occurring human HAQ STING isoform (hSTING HAQ); host or cells: THP1
T2 sequence (Q86WV6 whole entry R71H/G230A/H232R/R293Q, canonical isoform): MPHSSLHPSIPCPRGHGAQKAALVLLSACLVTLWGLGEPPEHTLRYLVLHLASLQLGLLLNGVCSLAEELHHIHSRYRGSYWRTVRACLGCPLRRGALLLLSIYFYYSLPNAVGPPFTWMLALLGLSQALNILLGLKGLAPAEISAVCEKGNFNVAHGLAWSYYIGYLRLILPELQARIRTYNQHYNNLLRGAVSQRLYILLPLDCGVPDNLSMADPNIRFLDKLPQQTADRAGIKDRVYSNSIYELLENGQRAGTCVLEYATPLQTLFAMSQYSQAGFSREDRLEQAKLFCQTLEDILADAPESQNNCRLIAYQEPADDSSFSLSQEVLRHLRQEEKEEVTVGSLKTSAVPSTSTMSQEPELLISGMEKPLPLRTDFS
In short: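 THP1 cells were seeded at 9×10^5 per well, incubated overnight, then treated with compound at 3.6 μM final (0.1% DMSO control) for 2 hrs at 37 °C. IFN-β mRNA was measured by SYBR Green qPCR, normalised to GAPDH by the 2^−ΔΔCT method, in triplicate.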

SMILES | IC50 (hERG channel) | Relative mRNA INFβ/GAPDH THP 1 [1]
COc1cc(CN(Cc2cn3c4c(c(F)c(F)cc4c2=O)SCC3)[C@H]2CCCN(c3ccc(N)nc3)C2)ccn1 [Compound 69, 9,10-difluoro-6-({[(3S)-1-(6-aminopyridin-3-yl)hexahydropyridin-3-yl][(2-methoxypyridin-4-yl)methyl]amino}methyl)-3,7-dihydro-2H-[1,4]thiazino[2,3,4-ij]quinolin-7-one] | 1.94 µM | 9547.9
COc1cc(CN(Cc2cn3c4c(c(F)c(F)cc4c2=O)OCC3C)[C@H]2CCCN(c3ccc(N)nc3)C2)ccn1 (stereo partly drawn) [Compound 1, 6-((((S)-1-(6-aminopyridin-3-yl)piperidin-3-yl)((2-methoxypyridin-4-yl)methyl)amino)methyl)-9,10-difluoro-3-methyl-2H-[1,4]oxazino[2,3,4-ij]quinolin-7(3H)-one] | 1.58 µM | 447.9
COc1cc(CN(Cc2cn3c4c(c(N5CCN(C)CC5)c(F)cc4c2=O)OCC3C)[C@H]2CCCN(c3ccc(N)nc3)C2)ccn1 (stereo partly drawn) [Compound 29, 6-((((S)-1-(6-aminopyridin-3-yl)piperidin-3-yl)((2-methoxypyridin-4-yl)methyl)amino)methyl)-9-fluoro-3-methyl-10-(4-methylpiperazin-1-yl)-2H-[1,4]oxazino[2,3,4-ij]quinolin-7(3H)-one] | 34.1 µM | 3330.1
COc1cc(CN(Cc2cn3c4c(c(F)c(F)cc4c2=O)CCC3)[C@H]2CCCN(c3ccc(N)nc3)C2)ccn1 [Compound 67, (S)-2-(((1-(6-aminopyridin-3-yl)piperidin-3-yl)((2-methoxypyridin-4-yl)methyl)amino)methyl)-8,9-difluoro-6,7-dihydro-1H,5H-pyrido[3,2,1-ij]quinolin-1-one] | 3.08 µM | 7398.9
COc1cc(CN(Cc2cn3c4c(c(F)c(F)cc4c2=O)OCC3C(C)C)[C@H]2CCCN(c3ccc(N)nc3)C2)ccn1 (stereo partly drawn) [Compound 53, 6-((((S)-1-(6-aminopyridin-3-yl)piperidin-3-yl)((2-methoxypyridin-4-yl)methyl)amino)methyl)-9,10-difluoro-3-isopropyl-2H-[1,4]oxazino[2,3,4-ij]quinolin-7(3H)-one] | 1.27 µM | 433.0
COc1cc(CN(Cc2cn3c4c(c(F)c(F)cc4c2=O)OCC3)[C@H]2CCCN(c3ccc(NCC4CC4)nc3)C2)ccn1 [Compound 99, (S)-6-(((1-(6-((cyclopropylmethyl)amino)pyridin-3-yl)piperidin-3-yl)((2-methoxypyridin-4-yl)methyl)amino)methyl)-9,10-difluoro-2,3-dihydro-7H-[1,4]oxazino[2,3,4-ij]quinolin-7-one] |  | 368.7
Cc1ccc(N2CCC[C@H](N(Cc3ccnc(C)c3)Cc3cn4c5c(c(OCCO)c(F)cc5c3=O)OCC4C)C2)cn1 (stereo partly drawn) [Compound 101, 9-fluoro-10-(2-hydroxyethoxy)-3-methyl-6-((((S)-1-(6-methylpyridin-3-yl)piperidin-3-yl)((2-methylpyridin-4-yl)methyl)amino)methyl)-2,3-dihydro-7H-[1,4]oxazino[2,3,4-ij]quinolin-7-one] |  | 332.9
COc1cc(CN(Cc2cn3c4c(c(N5CCN(C)CC5)c(F)cc4c2=O)OCC3)[C@H]2CCCN(c3ccc(N)nc3)C2)ccn1 [Compound 94, (S)-6-(((1-(6-aminopyridin-3-yl)piperidin-3-yl)((2-methoxypyridin-4-yl)methyl)amino)methyl)-9-fluoro-10-(4-methylpiperazin-1-yl)-2,3-dihydro-7H-[1,4]oxazino[2,3,4-ij]quinolin-7-one] |  | 248.8
COc1cc(CN(Cc2cn3c4c(c(N5CC6CC(F)(F)CC6C5)c(F)cc4c2=O)OCC3C)[C@H]2CCCN(c3ccc(N)nc3)C2)ccn1 (stereo partly drawn) [Compound 46, 6-((((S)-1-(6-aminopyridin-3-yl)piperidin-3-yl)((2-methoxypyridin-4-yl)methyl)amino)methyl)-10-(5,5-difluorohexahydrocyclopenta[c]pyrrol-2(1H)-yl)-9-fluoro-3-methyl-2H-[1,4]oxazino[2,3,4-ij]quinolin-7(3H)-one] |  | 691.4
Nc1ccc(N2CCC[C@H](N(Cc3ccccn3)Cc3cn4c5c(c(F)c(F)cc5c3=O)OCC4)C2)cn1 [Compound 75, (S)-6-(((1-(6-aminopyridin-3-yl)piperidin-3-yl)(pyridin-2-ylmethyl)amino)methyl)-9,10-difluoro-2,3-dihydro-7H-[1,4]oxazino[2,3,4-ij]quinolin-7-one] |  | 1.1
COc1cc(CN(Cc2cn3c4c(c(F)c(F)cc4c2=O)OC(C)(C)C3)[C@H]2CCCN(c3ccc(N)nc3)C2)ccn1 [Compound 50, (S)-6-(((1-(6-aminopyridin-3-yl)piperidin-3-yl)((2-methoxypyridin-4-yl)methyl)amino)methyl)-9,10-difluoro-2,2-dimethyl-2H-[1,4]oxazino[2,3,4-ij]quinolin-7(3H)-one] |  | 6723.5
Nc1ccc(N2CCC[C@H](N(Cc3ccncc3)Cc3cn4c5c(c(F)c(F)cc5c3=O)OCC4)C2)cn1 [Compound 70, (S)-6-(((1-(6-aminopyridin-3-yl)piperidin-3-yl)(pyridin-4-ylmethyl)amino)methyl)-9,10-difluoro-2,3-dihydro-7H-[1,4]oxazino[2,3,4-ij]quinolin-7-one] |  | 6236.9
COc1cc(CN(Cc2cn3c4c(c(N5CCNCC5)c(F)cc4c2=O)OCC3C)[C@H]2CCCN(c3ccc(N)nc3)C2)ccn1 (stereo partly drawn) [Compound 39, 6-((((S)-1-(6-aminopyridin-3-yl)piperidin-3-yl)((2-methoxypyridin-4-yl)methyl)amino)methyl)-9-fluoro-3-methyl-10-(piperazin-1-yl)-2H-[1,4]oxazino[2,3,4-ij]quinolin-7(3H)-one] |  | 81.3
COc1cc(CN(Cc2cn3c4c(c(F)c(F)cc4c2=O)OC[C@@H]3C)[C@H]2CCCN(c3ccc(N)nc3)C2)ccn1 [Compound 6, (S)-6-((((S)-1-(6-aminopyridin-3-yl)piperidin-3-yl)((2-methoxypyridin-4-yl)methyl)amino)methyl)-9,10-difluoro-3-methyl-2H-[1,4]oxazino[2,3,4-ij]quinolin-7(3H)-one] |  | 1595.2
Cc1cncc(CN(Cc2cn3c4c(c(N5CCN(C)CC5)c(F)cc4c2=O)OCC3)[C@@H]2CCCN(c3cnccn3)C2)c1 [Compound 95, (R)-9-fluoro-10-(4-methylpiperazin-1-yl)-6-((((5-methylpyridin-3-yl)methyl)(1-(pyrazin-2-yl)piperidin-3-yl)amino)methyl)-2,3-dihydro-7H-[1,4]oxazino[2,3,4-ij]quinolin-7-one] |  | 1.2
CCC1COc2c(F)c(F)cc3c(=O)c(CN(Cc4ccnc(OC)c4)[C@H]4CCCN(c5ccc(N)nc5)C4)cn1c23 (stereo partly drawn) [Compound 100, 6-((((S)-1-(6-aminopyridin-3-yl)piperidin-3-yl)((2-methoxypyridin-4-yl)methyl)amino)methyl)-3-ethyl-9,10-difluoro-2,3-dihydro-7H-[1,4]oxazino[2,3,4-ij]quinolin-7-one] |  | 581.3
